Experimental data from patent US20120035187A1 (priority 2009, published 2012).
Read-outs that look alike come from different tables or passages of the source.

Tests used:
[1] = test system: PC12-HS cells; experiment: Evaluation B: neurite-outgrowth action in presence of NGF; format: cell-based, rat; conditions: for Percentage (%) of cells with neurite outgrowth: 50 μl/well of 2 μg/ml test solution + NGF final 5 ng/ml, 3 days
[2] = test system: PC12-HS cells; experiment: Evaluation A: neurocyte (cell)-growth-promoting action, ALAMAR BLUE; format: cell-based, rat
Description: Then, the effects of test samples were judged as follows:
The relative value of 140 to 199: Equivalent effect to that of NK-4, symbol (∘); The relative value of 200 or higher: Stronger effect than that of NK-4, symbol ([…]). • The results are in Table 6.
The relative fluorescent intensity of each well was determined by using the fluorescent intensity of each well with cells, which had been cultured by admixing with D-MEM medium containing 10% by volume of FBS without any of the compounds, and the intensity of the resulting culture was regarded as 100%. The results are expressed as cell survival percentages (%) in Table 9. […]
The test was conducted twice for each test sample in a triplicate manner and the data were averaged.
Seven compounds as in Table 17, NK-234, NK-26, NK-9815, NK-9694, NK-28 and NK-147 as well as NK-4, were each dissolved in DMSO to give a concentration of 5 mg/ml. […] The test was conducted twice for each test sample in a triplicate manner and the data were averaged.

[3] = test system: PC12-HS cells; conditions: 6-hydroxy dopa, 24 hours
[4] = Hydroxyl radical-scavenging activity, ESR (Fenton reaction)
Description: Stock solutions, prepared by dissolving NK-4, NK-19, NK-53, NK-100, and NK-557 in DMSO, were respectively diluted with refined water to give concentrations of 3-folds higher than those in Table 14 and used as test sample solutions. As a positive control, a neuroprotectant, “edaravone”, commercialized as “RADICUT®” containing 3-methyl-1-phenyl-2-pyrazoline-5-one as an effective ingredient by Mitsubishi Tanabe Pharma Corporation, Osaka, Japan, was diluted with refined water to give a concentration of 3-folds higher than that in Table 14 for use. To 50 μl of refined water, 50 μl of 89 mM DMPO ([…]) commercialized by Dojindo Laboratories, Kumamoto, Japan, 50 μl of the test sample solution, and 50 μl of an aqueous solution containing 1 mM hydrogen peroxide, 1 mM FeSO4, and 1 mM DTPA, commercialized by Wako Pure Chemical Industries, Osaka, Japan, were added, mixed for 10 seconds using a vortex mixer and allowed to react in an incubator controlled at 37° for 40 seconds. After 30 seconds from completion of the reaction, the resulting reaction mixture was subjected to ESR measurement. A control solution was prepared by the same method as above except for using 50 μl of a diluted edaravone solution as a substitute for the test sample solution, and subjected to ESR measurement.
The reaction mixture for measuring hydroxyl or peroxyl radicals was poured into a flat quartz cell for ESR, set to “FREE RADICAL MONITOR JES-FR30”, an ESR apparatus commercialized by JOEL Ltd., Tokyo, Japan, and ESR was measured according to manual manner. The residual ratio of peroxyl radical (%) was determined as a relative value by defining the ESR value, obtained by using 0.1 M phosphate buffer as a substitute of the test sample solution, as 100. The results are in Tables 14 and 15. […] Therefore, the IC50 of edaravone was determined by another test using its higher concentration, and the result is also shown in Table 14. The conditions of the ESR measurement were set as follows: […]

[5] = biological target: T1, acetylcholine esterase (AchE) (Rattus norvegicus, UniProt P37136); experiment: biochemical; format: biochemical
T1 sequence (P37136 32-614): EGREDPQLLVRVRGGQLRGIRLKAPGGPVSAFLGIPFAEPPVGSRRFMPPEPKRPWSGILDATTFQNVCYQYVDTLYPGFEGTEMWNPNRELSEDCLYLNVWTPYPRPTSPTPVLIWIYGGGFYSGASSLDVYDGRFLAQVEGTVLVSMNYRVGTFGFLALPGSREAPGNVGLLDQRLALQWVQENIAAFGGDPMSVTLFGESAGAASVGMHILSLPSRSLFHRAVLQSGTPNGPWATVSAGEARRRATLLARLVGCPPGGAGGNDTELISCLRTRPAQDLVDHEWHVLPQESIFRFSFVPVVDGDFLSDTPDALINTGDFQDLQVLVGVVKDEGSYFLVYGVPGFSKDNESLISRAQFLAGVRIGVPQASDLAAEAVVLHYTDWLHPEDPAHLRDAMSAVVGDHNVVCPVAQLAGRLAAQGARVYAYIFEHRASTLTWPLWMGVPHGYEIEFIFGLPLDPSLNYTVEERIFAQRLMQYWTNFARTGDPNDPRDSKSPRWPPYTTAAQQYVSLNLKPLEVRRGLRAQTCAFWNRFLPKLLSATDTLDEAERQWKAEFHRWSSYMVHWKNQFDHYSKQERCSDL

[6] = compound concentration 80 ng/ml
[7] = compound concentration 400 ng/ml
[8] = compound concentration 2000 ng/ml
[9] = compound concentration 10000 ng/ml
[10] = 100 μl/well of 100 ng/ml test solution, 3 days, control = 100
[11] = compound concentration 25 ng/ml
[12] = compound concentration 50 ng/ml
[13] = compound concentration 100 ng/ml
[14] = compound concentration 200 ng/ml

| Compound | Percentage (%) of cells with neurite outgrowth [1] | Action on neurite outgrowth (%) [1, 6] | Action on neurite outgrowth (%) [1, 7] | Action on neurite outgrowth (%) [1, 8] | Action on neurite outgrowth (%) [1, 9] | Action of enhancing cell growth (%) [2, 10] | Action of enhancing cell growth (%) [2, 11] | Action of enhancing cell growth (%) [2, 12] | Action of enhancing cell growth (%) [2, 13] | Action of enhancing cell growth (%) [2, 14] | also measured |
| --- | --- | --- | --- | --- | --- | --- | --- | --- | --- | --- | --- |
| CCCCCCN1C(C)=CS\C1=C/C=C(\C=C\c1scc(C)[n+]1CCCCCC)c1scc(C)[n+]1CCCCCC.[I-].[I-] [NK-392] | 44% | 44 ± 12% | 48 ± 2% | 76 ± 8% | 81 ± 10% | 560% | 349 ± 63% | 601 ± 93% | 607 ± 71% | 460 ± 41% |  |
| CCCCCCCCCCN1C(C)=CS\C1=C/C=C(\C=C\c1scc(C)[n+]1CCCCCCCCCC)c1scc(C)[n+]1CCCCCCCCCC.[I-].[I-] [NK-2844] | 54% |  |  |  |  | 399% |  |  |  |  |  |
| CCCCCN1C(C)=CS\C1=C/C=C(\C=C\c1scc(C)[n+]1CCCCC)c1scc(C)[n+]1CCCCC.[I-].[I-] [NK-2850] | 56% |  |  |  |  | 553% |  |  |  |  |  |
| CCCCCCCCCCCN1C(C)=CS\C1=C/C=C(/C=C/c1scc(C)[n+]1CCCCCCCCCCC)c1scc(C)[n+]1CCCCCCCCCCC.[I-].[I-] [NK-9640] | 13% |  |  |  |  | 191% |  |  |  |  |  |
| CCCCCCN1C=CC(=CC=C(C=Cc2cc[n+](CCCCCC)c3ccccc23)c2cc[n+](CCCCCC)c3ccccc23)c2ccccc21.[I-].[I-] [NK-9694] |  | 45 ± 8% | 55 ± 14% | 38 ± 12% | 10< % |  | 269 ± 17% | 123 ± 88% | 402 ± 111% | 320 ± 36% | suppression of cytotoxicity by 6-hydroxy dopa (in words) [3]: significantly suppressed; Survival-cell percentage (%) ([3]; compound 0.83 ng/ml): 62 ± 1%; Survival-cell percentage (%) ([3]; compound 3.3 ng/ml): 68 ± 2 %; Survival-cell percentage (%) ([3]; compound 13 ng/ml): 67 ± 0 %; Survival-cell percentage (%) ([3]; compound 50 ng/ml): 62 ± 3%; Survival-cell percentage (%) ([3]; compound 200 ng/ml): 47 ± 1%; Survival-cell percentage (%) ([3]; compound 800 ng/ml): 42 ± 1%; IC50 (μg/ml) of hydroxyl radical-scavenging activity [4]: 3.4 µg/mL |
| CCCCCN1C=CC(=CC=C(C=Cc2cc[n+](CCCCC)c3ccccc23)c2cc[n+](CCCCC)c3ccccc23)c2ccccc21.[I-].[I-] [NK-9815] |  | 68 ± 12% | 62 ± 12% | 56 ± 2% | 11 ± 2% |  | 304 ± 26% |  |  |  | Residual ratio of AchE activity (%) ([5]; concentration of compound 0.78 μg/ml): 82 ± 2%; Residual ratio of AchE activity (%) ([5]; concentration of compound 1.56 μg/ml): 98 ± 24%; Residual ratio of AchE activity (%) ([5]; concentration of compound 3.13 μg/ml): 93 ± 36%; Residual ratio of AchE activity (%) ([5]; concentration of compound 6.25 μg/ml): 94 ± 16%; Residual ratio of AchE activity (%) ([5]; concentration of compound 12.5 μg/ml): 56 ± 7 %; Residual ratio of AchE activity (%) ([5]; concentration of compound 25 μg/ml): 41 ± 14 %; Residual ratio of AchE activity (%) ([5]; concentration of compound 50 μg/ml): 24 ± 4 %; IC50 ([5]; concentration that suppresses AchE activity by 50%, calculated from residual ratios): 17.3 µg/mL |
